# Data as given in patent US20120245199A1, “[4 [4-(AMINOMETHYL-2-FLUORO-PHENYL)-PIPERIDIN-1-YL]-(1H-PYRROLO-PYRIDIN-YL)-METHANONES AND SYNTHESIS THEREOF” (SANOFI, priority 2009, published 2012).
# Where “and” joins values, the source holds several entries; their conditions need not be identical. Identical values can stand only once. Counter-ions that a name gives are not always drawn.
# Assays:
# [1] = target: T1, recombinant human beta tryptase (Homo sapiens, UniProt Q15661); assay: beta-Tryptase inhibition, chromogenic enzyme assay (S2366 substrate); assay type: biochemical; conditions: Ki calculated from IC50: Ki=IC50/(1+[Substrate]/Km), 0.5 mM S2366, room temperature
# T1 construct: host or cells: yeast cells
# T1 sequence (Q15661 31-275): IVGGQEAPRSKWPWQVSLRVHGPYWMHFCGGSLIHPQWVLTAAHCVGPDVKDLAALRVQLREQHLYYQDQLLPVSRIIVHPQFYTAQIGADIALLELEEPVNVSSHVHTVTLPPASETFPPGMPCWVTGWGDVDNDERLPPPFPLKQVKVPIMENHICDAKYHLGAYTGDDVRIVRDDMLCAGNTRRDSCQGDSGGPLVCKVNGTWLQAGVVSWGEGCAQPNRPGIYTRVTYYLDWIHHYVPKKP
# Description: Inhibition of this catalytic activity may be measured by the in vitro enzyme assay and the cellular assay.
# Tryptase inhibition activity is confirmed using either isolated human lung tryptase or recombinant human beta tryptase expressed in yeast cells. Essentially equivalent results are obtained using isolated native enzyme or the expressed enzyme. The assay procedure employs a 96 well microplate (Costar 3590) using L-pyroglutamyl-L-prolyl-L-arginine-para-nitroanilide (S2366: Quadratech) as substrate (essentially as described by McEuen et. al. Biochem Pharm, 1996, 52, pages 331-340). Assays are performed at room temperature using 0.5 mM substrate (2×Km) and the microplate is read on a microplate reader (Beckman Biomek Plate reader) at 405 nm wavelength.
# S2366 (Stock solutions of 2.5 mM).
# Purified recombinant beta Tryptase Stocks of 310 μg/mL.
# • Add 60 μL of diluted substrate (final concentration of 500 μM in assay buffer) to each well • Add compound in duplicates, final concentration of 20 μM, volume 20 μL • Add enzyme at a final concentration of 50 ng/mL in a volume of 20 μL • Total volume for each well is 100 μL • Agitate briefly to mix and incubate at room temp in the dark for 30 minutes • Read absorbencies at […] Each plate has the following controls: • Totals: 60 μL of substrate, 20 μL of buffer (with 0.2% final concentration of DMSO), 20 μL of enzyme • Non-specific: 60 μL of substrate, 40 μL of buffer (with 0.2% DMSO) • Totals: 60 μL of substrate, 20 μL of buffer (No DMSO), 20 μL of enzyme • Non-specific: 60 μL of substrate, 40 μL of buffer (No DMSO)
# The protocol is essentially the same as above except that the compound is added in duplicates at the following final concentrations: 0.01, 0.03, 0.1, 0.3, 1, 3, 10 μM (All dilutions carried out manually). For every assay, whether single point or IC50 determination, a standard compound is used to derive IC50 for comparison. From the IC50 value, the Ki can be calculated using the following formula: Ki=IC50/(1+[Substrate]/Km).
Structure (SMILES),melting point [°C],Ki [1]
"COCCn1cc(C(=O)N2CCC(c3cc(CN)ccc3F)CC2)c2ccnc(Cl)c21 (as salt: hydrochloride) [Example 13, [4-(5-Aminomethyl-2-fluoro-phenyl)-piperidin-1-yl]-[7-chloro-1-(2-methoxy-ethyl)-1H-pyrrolo[2,3-c]pyridin-3-yl]-methanone dihydrochloride]",163 to 167,–
"NCc1ccc(F)c(C2CCN(C(=O)c3cc4cccnc4[nH]3)CC2)c1 [Example 1, [4-(5-Aminomethyl-2-fluoro-phenyl)-piperidin-1-yl]-(1H-pyrrolo[2,3-b]pyridin-2-yl)-methanone dihydrochloride]",–,221 nM
"COCCn1c(C(=O)N2CCC(c3cc(CN)ccc3F)CC2)cc2cccnc21 [Example 2, [4-(5-Aminomethyl-2-fluoro-phenyl)-piperidin-1-yl]-[1-(2-methoxy-ethyl)-1H-pyrrolo[2,3-b]pyridin-2-yl]-methanone dihydrochloride]",–,538 nM
"COCCn1c(C(=O)N2CCC(c3cccc(CN)c3)CC2)cc2cccnc21 [Example 3, [4-(3-Aminomethyl-phenyl)-piperidin-1-yl]-[1-(2-methoxy-ethyl)-1H-pyrrolo[2,3-b]pyridin-2-yl]-methanone dihydrohydrochloride, dihydrochloride]",–,915 nM
"COCCn1c(C(=O)N2CCC(c3cc(CN)ccc3F)CC2)cc2cnccc21 [Example 4, [4-(5-Aminomethyl-2-fluoro-phenyl)-piperidin-1-yl]-[1-(2-methoxy-ethyl)-1H-pyrrolo[3,2-c]pyridin-2-yl]-methanone hydrochloride]",–,1100 nM
"NCc1ccc(F)c(C2CCN(C(=O)c3c[nH]c4cnccc34)CC2)c1 [Example 5, [4-(5-Aminomethyl-2-fluoro-phenyl)-piperidin-1-yl]-(1H-pyrrolo[2,3-c]pyridin-3-yl)-methanone dihydrochloride]",–,220 nM
"COCCn1cc(C(=O)N2CCC(c3cc(CN)ccc3F)CC2)c2cnccc21 [Example 10, [4-(5-Aminomethyl-2-fluoro-phenyl)-piperidin-1-yl]-[1-(2-methoxy-ethyl)-1H-pyrrolo[3,2-c]pyridin-3-yl]-methanone dihydrochloride]",–,180 nM
"COCCn1cc(C(=O)N2CCC(c3cc(CN)ccc3F)CC2)c2nccc(C)c21 [Example 12, [4-(5-Aminomethyl-2-fluoro-phenyl)-piperidin-1-yl]-[1-(2-methoxy-ethyl)-7-methyl-1H-pyrrolo[3,2-b]pyridin-3-yl]-methanone dihydrochloride]",–,23 nM and 13 nM
"NCc1ccc(F)c(C2CCN(C(=O)c3cn(CCN4CCCCC4)c4cccnc34)CC2)c1 [Example 17, [4-(5-Aminomethyl-2-fluoro-phenyl)-piperidin-1-yl]-[1-(2-piperidin-1-yl-ethyl)-1H-pyrrolo[3,2-b]pyridin-3-yl]-methanone trihydrochloride]",–,290 nM
"NCc1ccc(F)c(C2CCN(C(=O)c3cn(CCN4CCCC4)c4cccnc34)CC2)c1 [Example 18, [4-(5-Aminomethyl-2-fluoro-phenyl)-piperidin-1-yl]-[1-(2-pyrrolidin-1-yl-ethyl)-1H-pyrrolo[3,2-b]pyridin-3-yl]-methanone trihydrochloride]",–,277 nM
"NCc1ccc(F)c(C2CCN(C(=O)c3c[nH]c4ncccc34)CC2)c1 [Example 19, [4-(5-Aminomethyl-2-fluoro-phenyl)-piperidin-1-yl]-(1H-pyrrolo[2,3-b]pyridin-3-yl)-methanone dihydrochloride]",–,203 nM

# Further compounds by falling Ki [1], results first:
melting point [°C],Ki [1],Structure (SMILES)
–,166 nM,"COCCOc1nccc2c(C(=O)N3CCC(c4cc(CN)ccc4F)CC3)cn(CCOC)c12 [Example 11, [4-(5-Aminomethyl-2-fluoro-phenyl)-piperidin-1-yl]-[7-(2-methoxy-ethoxy)-1-(2-methoxy-ethyl)-1H-pyrrolo[2,3-c]pyridin-3-yl]-methanone dihydrochloride]"
–,99 nM,"COCCn1cc(C(=O)N2CCC(c3cccc(CN)c3)CC2)c2ccncc21 [Example 8, [4-(3-Aminomethyl-phenyl)-piperidin-1-yl]-[1-(2-methoxy-ethyl)-1H-pyrrolo[2,3-c]pyridin-3-yl]-methanone dihydrochloride]"
–,92 nM,"COCCn1cc(C(=O)N2CCC(c3cc(CN)ccc3F)CC2)c2cccnc21 [Example 20, [4-(5-Aminomethyl-2-fluoro-phenyl)-piperidin-1-yl]-[1-(2-methoxy-ethyl)-1H-pyrrolo[2,3-b]pyridin-3-yl]-methanone dihydrochloride]"
–,35 nM,"COCCn1cc(C(=O)N2CCC(c3cc(CN)ccc3F)CC2)c2ccncc21 [Example 9, [4-(5-Aminomethyl-2-fluoro-phenyl)-piperidin-1-yl]-[1-(2-methoxy-ethyl)-1H-pyrrolo[2,3-c]pyridin-3-yl]-methanone dihydrochloride]"
–,25 nM,"COCCn1cc(C(=O)N2CCC(c3cc(CN)ccc3F)CC2)c2ccnc(Cl)c21 [Example 13, [4-(5-Aminomethyl-2-fluoro-phenyl)-piperidin-1-yl]-[7-chloro-1-(2-methoxy-ethyl)-1H-pyrrolo[2,3-c]pyridin-3-yl]-methanone dihydrochloride]"
–,25 nM,"COCCn1cc(C(=O)N2CCC(c3cc(CN)ccc3F)CC2)c2ccnc(C)c21 [Example 14, [4-(5-Aminomethyl-2-fluoro-phenyl)-piperidin-1-yl]-[1-(2-methoxy-ethyl)-7-methyl-1H-pyrrolo[2,3-c]pyridin-3-yl]-methanone]"
–,9.9 nM,"COCCn1cc(C(=O)N2CCC(c3cc(CN)ccc3F)CC2)c2nccc(OC)c21 [Example 15, [4-(5-Aminomethyl-2-fluoro-phenyl)-piperidin-1-yl]-[7-methoxy-1-(2-methoxy-ethyl)-1H-pyrrolo[3,2-b]pyridin-3-yl]-methanone dihydrochloride]"
–,2.9 nM,"NCc1ccc(F)c(C2CCN(C(=O)c3cn(CCc4ccccc4)c4cccnc34)CC2)c1 [Example 16, [4-(5-Aminomethyl-2-fluoro-phenyl)-piperidin-1-yl]-(1-phenethyl-1H-pyrrolo[3,2-b]pyridin-3-yl)-methanone dihydrochloride]"
